Laboratory results reported in ChEMBL document CHEMBL5620373, “Establishment of environment-sensitive probes targeting BRD3/BRD4 for imaging and therapy of tumor” (Eur J Med Chem, 2023).
Active and inactive are the calls of the source. The rule behind the calls is not given here.

Assays:
[1] = Drug uptake in human MCF7 cells assessed as fluorescence emission by fluorescence microscopic analysis; type: ADME, cell-based
[2] = Fluorescent property of compound in PBS at pH 7.4 assessed as excitation wavelength by microplate reader analysis; type: physicochemical; conditions: buffer
[3] = Fluorescent property of compound in PBS at pH 7.4 assessed as emission wavelength by microplate reader analysis; type: physicochemical; conditions: buffer
[4] = Drug uptake in HEK293 cells assessed as fluorescence emission by fluorescence microscopic analysis; type: ADME, cell-based; conditions: human
MCF7 [5] = experiment: Induction of apoptosis in human MCF7 cells assessed as increase in Bcl-2 mRNA level after 48 hrs by qRT-PCR analysis; type: functional, cell-based; conditions: dose 1-10 µmol/L
MCF7 [6] = experiment: Induction of apoptosis in human MCF7 cells assessed as increase in Bcl-2 mRNA level at 1 to 10 umol/L by qRT-PCR analysis; type: functional, cell-based; conditions: dose 1-10 µmol/L, TDE = time-dependent effect
MCF7 [7] = experiment: Induction of apoptosis in human MCF7 cells assessed as increase in early apoptotic cells after 48 hrs by flow cytometry analysis; type: functional, cell-based
[8] = Drug uptake in fixed human MCF7 cells nucleus assessed as fluorescence intensity in presence of BRD3 antibody by acridine orange dye based analysis; type: ADME, cell-based
MCF7 [9] = experiment: Induction of apoptosis in human MCF7 cells assessed as decrease in c-Myc mRNA level after 48 hrs by qRT-PCR analysis; type: functional, cell-based; conditions: dose 1-10 µmol/L
[10] = Drug uptake in human MCF7 cells nucleus assessed as fluorescence intensity at 15 umol/L by acridine orange dye based analysis; type: ADME, cell-based; conditions: mcf7, 15 µM, dose 15 µmol/L
MCF7 [11] = experiment: Induction of apoptosis in human MCF7 cells assessed as increase in AMPK mRNA level at 1 to 10 umol/L after 48 hrs by qRT-PCR analysis; type: functional, cell-based; conditions: dose 1-10 µmol/L
[12] = Drug uptake in human MCF7 cells xenografted nude mouse tumor tissue in presence of BRD3 antibody by immunofluorescence analysis; type: ADME, Neoplasm; conditions: in vivo
[13] = molecular target: Bromodomain-containing protein 4 (Homo sapiens) (UniProt O60885); experiment: Binding affinity to recombinant BRD4 (unknown origin) in PBS at pH 7.4 assessed as increase in fluorescence intensity measured after 30 mins by TR-FRET assay; conditions: dose 0.4-3.1 µg/ml
MCF7 [14] = experiment: Inhibition of cell migration in human MCF7 cells assessed as reduction in wound healing at 1 umol/L measured upto 72 hrs by scratch assay; type: functional, cell-based; conditions: dose 1.0 µmol/L
MCF7 [15] = experiment: Induction of apoptosis in human MCF7 cells assessed as decrease in c-Myc mRNA level at 1 to 10 umol/L by qRT-PCR analysis; type: functional, cell-based; conditions: dose 1-10 µmol/L, TDE = time-dependent effect
[16] = Drug uptake in fixed human MCF7 cells nucleus assessed as fluorescence intensity in presence of BRD4 antibody by acridine orange dye based analysis; type: ADME, cell-based
MCF7 [17] = experiment: Antiproliferative activity against human MCF7 cells assessed as reduction in cell viability by MTT assay; type: functional, cell-based
[18] = molecular target: Bromodomain-containing protein 3 (Homo sapiens) (UniProt Q15059); experiment: Binding affinity to recombinant BRD3 (unknown origin) in PBS at pH 7.4 assessed as increase in fluorescence intensity at […] in presence of JQ1(+) by TR-FRET assay; conditions: time 30.0 min
Bromodomain-containing protein 3 (Homo sapiens), sequence (Q15059 2-726 limits assumed): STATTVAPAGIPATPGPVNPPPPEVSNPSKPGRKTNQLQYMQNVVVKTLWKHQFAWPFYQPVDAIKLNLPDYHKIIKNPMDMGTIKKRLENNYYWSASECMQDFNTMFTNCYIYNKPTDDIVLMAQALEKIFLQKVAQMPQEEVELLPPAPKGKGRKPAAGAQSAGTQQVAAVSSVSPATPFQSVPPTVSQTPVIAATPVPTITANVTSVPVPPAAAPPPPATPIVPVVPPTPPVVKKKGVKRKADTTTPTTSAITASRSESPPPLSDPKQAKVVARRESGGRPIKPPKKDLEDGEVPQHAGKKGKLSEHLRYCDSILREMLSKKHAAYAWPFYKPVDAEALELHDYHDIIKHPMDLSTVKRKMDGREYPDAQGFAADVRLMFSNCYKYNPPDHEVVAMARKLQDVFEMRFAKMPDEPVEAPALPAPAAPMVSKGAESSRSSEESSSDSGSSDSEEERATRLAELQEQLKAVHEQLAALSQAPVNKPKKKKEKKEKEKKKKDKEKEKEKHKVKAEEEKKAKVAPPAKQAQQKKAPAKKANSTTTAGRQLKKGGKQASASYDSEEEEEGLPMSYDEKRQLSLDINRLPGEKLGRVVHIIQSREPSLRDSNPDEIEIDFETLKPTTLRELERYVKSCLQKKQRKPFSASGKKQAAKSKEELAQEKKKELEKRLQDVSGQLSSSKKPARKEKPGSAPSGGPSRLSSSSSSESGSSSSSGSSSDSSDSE

MCF7 [19] = experiment: Inhibition of cell migration in human MCF7 cells assessed as reduction in wound healing at 10 umol/L measured upto 72 hrs by scratch assay; type: functional; conditions: MCF7, 72 h, dose 10 µmol/L
MCF7 [20] = experiment: Induction of apoptosis in human MCF7 cells assessed as decrease in c-Myc mRNA level at 1 to 10 umol/L after 48 hrs by qRT-PCR analysis; type: functional, cell-based; conditions: dose 1-10 µmol/L
[21] = Drug uptake in human MCF7 cells xenografted mouse tumor tissue assessed as fluorescence intensity at 15 umol/L by acridine orange dye based fluorescence microscopic assay; type: ADME, cell-based; conditions: in vivo, 15 µM, dose 15 µmol/L
MCF7 [22] = experiment: Induction of apoptosis in human MCF7 cells assessed as increase in AMPK mRNA level after 48 hrs by qRT-PCR analysis; type: functional, cell-based; conditions: dose 1-10 µmol/L
[23] = Drug uptake in BRD3 silenced fixed human MCF7 cells nucleus assessed as fluorescence intensity at 15 umol/L by acridine orange dye based analysis; type: ADME, cell-based; conditions: mcf7, 15 µM, dose 15 µmol/L
[24] = Drug uptake in BRD3 silenced human MCF7 cells nucleus assessed as fluorescence intensity at 15 umol/L by acridine orange dye based analysis; type: ADME, cell-based; conditions: mcf7, 15 µM, dose 15 µmol/L
[25] = Drug uptake in BRD4 silenced fixed human MCF7 cells nucleus assessed as fluorescence intensity at 15 umol/L by acridine orange dye based analysis; type: ADME, cell-based; conditions: mcf7, 15 µM, dose 15 µmol/L
[26] = Drug uptake in human MCF7 cells xenografted nude mouse tumor tissue in presence of BRD4 antibody by immunofluorescence analysis; type: ADME, Neoplasm; conditions: in vivo
[27] = molecular target: Bromodomain-containing protein 3 (Homo sapiens) (UniProt Q15059); experiment: Binding affinity to recombinant BRD3 (unknown origin) in PBS at pH 7.4 assessed as increase in fluorescence intensity measured after 30 mins by TR-FRET assay; conditions: dose 15.0 µmol/L
MCF7 [28] = experiment: Induction of apoptosis in human MCF7 cells assessed as increase in Bcl-2 mRNA level at 1 to 10 umol/L after 48 hrs by qRT-PCR analysis; type: functional, cell-based; conditions: dose 1-10 µmol/L
[29] = Drug uptake in human MCF7 cells xenografted nude mouse tumor tissue assessed as fluorescence intensity at 15 umol/L in presence of JQ1(+) by acridine orange dye based fluorescence microscopic assay; type: ADME, Neoplasm; conditions: in vivo, 15 µM, dose 15 µmol/L
[30] = Drug uptake in BRD4 silenced human MCF7 cells nucleus assessed as fluorescence intensity at 15 umol/L by acridine orange dye based analysis; type: ADME, cell-based; conditions: mcf7, 15 µM, dose 15 µmol/L
[31] = Drug uptake in human MCF7 cells nucleus assessed as fluorescence intensity at 15 umol/L in presence of JQ1(+) by acridine orange dye based analysis; type: ADME, cell-based; conditions: mcf7, 15 µM, dose 15 µmol/L
[32] = molecular target: Bromodomain-containing protein 4 (Homo sapiens) (UniProt O60885); experiment: Binding affinity to recombinant BRD4 (unknown origin) in PBS at pH 7.4 assessed as increase in fluorescence intensity at […] in presence of JQ1(+) by TR-FRET assay; conditions: time 30.0 min
MCF7 [33] = experiment: Induction of apoptosis in human MCF7 cells assessed as increase in AMPK mRNA level at 1 to 10 umol/L by qRT-PCR analysis; type: functional, cell-based; conditions: dose 1-10 µmol/L, TDE = time-dependent effect

Question: With Cc1sc2c(c1C)C(c1ccc(Cl)cc1)=N[C@@H](CC(=O)NCCCCNS(=O)(=O)c1cccc3c(N(C)C)cccc13)c1nnc(C)n1-2 as the compound, how does the Drug uptake [1] read?
Answer: Active

Question: And the Activity [2]?
Answer: 350 nm

Question: What about the Activity [3] of the same compound?
Answer: 495 nm

Question: What about the Drug uptake [4] of the same compound?
Answer: Not Active

Question: For Cc1sc2c(c1C)C(c1ccc(Cl)cc1)=N[C@@H](CC(=O)NCCCCCNS(=O)(=O)c1cccc3c(N(C)C)cccc13)c1nnc(C)n1-2, which Drug uptake [1] is on record?
Answer: Active

Question: What about the Activity [2] of the same compound?
Answer: 350 nm

Question: And the Activity [3]?
Answer: 495 nm

Question: And the Drug uptake [4]?
Answer: Not Active

Question: With Cc1sc2c(c1C)C(c1ccc(Cl)cc1)=N[C@@H](CC(=O)NCCCNS(=O)(=O)c1cccc3c(N(C)C)cccc13)c1nnc(C)n1-2 as the compound, how does the Drug uptake [1] read?
Answer: Active

Question: What about the Activity (MCF7 [5]) of the same compound?
Answer: Dose-Dependent Effect

Question: And the Activity (MCF7 [6])?
Answer: Tde

Question: And the Activity [2]?
Answer: 350 nm

Question: What about the Activity (MCF7 [7]) of the same compound?
Answer: Active

Question: What about the Drug uptake [8] of the same compound?
Answer: Active

Question: And the Activity (MCF7 [9])?
Answer: Dose-Dependent Effect

Question: And the Drug uptake [10]?
Answer: Active

Question: And the Activity (MCF7 [11])?
Answer: Active

Question: And the Drug uptake [12]?
Answer: Active

Question: What about the Activity [13] of the same compound?
Answer: Dose-Dependent Effect

Question: And the inhibition (MCF7 [14])?
Answer: Active

Question: And the Activity (MCF7 [15])?
Answer: Tde

Question: And the Drug uptake [16]?
Answer: Active

Question: And the Activity (MCF7 [17])?
Answer: Active

Question: What about the Activity [18] of the same compound?
Answer: inactive

Question: What about the inhibition at 10 µM (MCF7 [19]) of the same compound?
Answer: 100%

Question: What about the Activity (MCF7 [20]) of the same compound?
Answer: Active

Question: And the Drug uptake [21]?
Answer: Active

Question: What about the Activity (MCF7 [22]) of the same compound?
Answer: Dose-Dependent Effect

Question: And the Activity [3]?
Answer: 495 nm

Question: And the Drug uptake [4]?
Answer: Not Active

Question: And the Drug uptake [23]?
Answer: Active

Question: And the Drug uptake [24]?
Answer: Active

Question: What about the Drug uptake [25] of the same compound?
Answer: Active

Question: And the Drug uptake [26]?
Answer: Active

Question: What about the Activity [27] of the same compound?
Answer: Dose-Dependent Effect

Question: What about the Activity (MCF7 [28]) of the same compound?
Answer: Active

Question: And the Drug uptake [29]?
Answer: Not Active

Question: What about the Drug uptake [30] of the same compound?
Answer: Active

Question: And the Drug uptake [31]?
Answer: Not Active

Question: What about the Activity [32] of the same compound?
Answer: inactive

Question: What about the Activity (MCF7 [33]) of the same compound?
Answer: Tde

Question: Which Activity (MCF7 [5]) does the source give for Cc1sc2c(c1C)C(c1ccc(Cl)cc1)=N[C@@H](CC(=O)OC(C)(C)C)c1nnc(C)n1-2 here?
Answer: Dose-Dependent Effect

Question: What about the Activity (MCF7 [6]) of the same compound?
Answer: Tde

Question: And the Activity (MCF7 [7])?
Answer: Active

Question: And the Activity (MCF7 [9])?
Answer: Dose-Dependent Effect

Question: What about the Activity (MCF7 [11]) of the same compound?
Answer: Active

Question: And the inhibition (MCF7 [14])?
Answer: Active

Question: What about the Activity (MCF7 [15]) of the same compound?
Answer: Tde

Question: And the inhibition at 10 µM (MCF7 [19])?
Answer: 100%

Question: What about the Activity (MCF7 [20]) of the same compound?
Answer: Active

Question: What about the Activity (MCF7 [22]) of the same compound?
Answer: Dose-Dependent Effect

Question: What about the Activity (MCF7 [28]) of the same compound?
Answer: Active

Question: And the Activity (MCF7 [33])?
Answer: Tde
